Measured values taken from patent US7709471B2, “Compounds” (AstraZeneca AB, priority 2006, dated 2010).

Experiments:
[1] = test system: human colon tumour cell line HT29; assay: Cellular Assay (phosphohistone H3 Ser10 mitotic marker, HT29); format: cell-based; conditions: HT-29, 24 h, HT29 cells, read-out: IC50 (cellular assay, phosphohistone H3)
Procedure: Chromosome condensation in mitosis is accompanied by phosphorylation of histone H3 on serine 10.
After 24 hours, cells were fixed in 3.7% (v/v) formaldehyde then permeabilised and blocked for 10 minutes in 100 μl 0.5% (v/v) Triton X-100, 1% (w/v) bovine serum albumin (BSA) in phosphate buffered saline (PBS). […] The raw assay data were analysed by non-linear regression analysis and used to determine an IC50 value for each compound.

recombinant Plk1 = recombinant Plk1 (Homo sapiens, UniProt P53350); assay: In Vitro Plk1 Enzyme Assay (SPA, GST-Cdc25C phosphorylation); format: biochemical; conditions: ATP 64 nM, 90 minutes, read-out: IC50 (Plk1 enzyme inhibition)
recombinant Plk1, sequence (P53350 whole entry): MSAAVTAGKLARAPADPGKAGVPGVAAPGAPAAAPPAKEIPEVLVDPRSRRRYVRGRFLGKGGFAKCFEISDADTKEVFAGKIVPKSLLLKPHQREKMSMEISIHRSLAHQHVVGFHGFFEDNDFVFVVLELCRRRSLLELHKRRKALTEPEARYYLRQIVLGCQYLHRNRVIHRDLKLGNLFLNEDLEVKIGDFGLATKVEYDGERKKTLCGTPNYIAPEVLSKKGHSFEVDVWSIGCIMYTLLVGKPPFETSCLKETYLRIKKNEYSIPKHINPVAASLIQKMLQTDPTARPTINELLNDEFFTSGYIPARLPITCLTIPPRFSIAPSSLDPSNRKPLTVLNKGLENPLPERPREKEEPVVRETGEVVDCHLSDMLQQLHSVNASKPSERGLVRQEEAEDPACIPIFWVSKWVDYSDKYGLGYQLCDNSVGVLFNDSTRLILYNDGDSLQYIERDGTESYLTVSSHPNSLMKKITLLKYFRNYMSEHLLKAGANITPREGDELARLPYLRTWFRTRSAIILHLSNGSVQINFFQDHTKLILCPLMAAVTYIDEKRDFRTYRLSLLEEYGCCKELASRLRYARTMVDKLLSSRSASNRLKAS

`CCN1CCC(NC(=O)c2ccc(Nc3ncc4c(n3)N(C3CCCC3)CCC(=O)N4C)c(Cl)c2)CC1` [Example 316, 3-chloro-4-[(2-cyclopentyl-6-methyl-5-oxo-2,6,9,11-tetrazabicyclo[5.4.0]undeca-7,9,11-trien-10-yl)amino]-N-(1-ethyl-4-piperidyl)benzamide] was tested, and the IC50 [1] was < 300 nM and the IC50 (recombinant Plk1) was < 300 nM.
`COc1cc(C(=O)Nc2cccnc2)ccc1Nc1ncc2c(n1)N(C1CCCC1)CCC(=O)N2C` [Example 74, 4-[(6-cyclopentyl-2-methyl-3-oxo-2,6,8,10-tetrazabicyclo[5.4.0]undeca-8,10,12-trien-9-yl)amino]-3-methoxy-N-pyridin-3-yl-benzamide] was tested, and the IC50 [1] was < 300 nM and the IC50 (recombinant Plk1) was < 100000 nM.
In the case of `CCCC1CN(C2CCCC2)c2nc(Nc3ccc(C(=O)NC4CCN(C)CC4)cc3OC)ncc2N(C)C1=O` (single isomer, unassigned) [Example 238], the IC50 [1] is reported as < 1000 nM and the IC50 (recombinant Plk1) is reported as < 1000 nM.
For `COc1cc(C(=O)NCCCN2CCCCC2)ccc1Nc1ncc2c(n1)N(C1CCCC1)CCC(=O)N2C` [Example 69, 4-[(6-cyclopentyl-2-methyl-3-oxo-2,6,8,10-tetrazabicyclo[5.4.0]undeca-8,10,12-trien-9-yl)amino]-3-methoxy-N-[3-(1-piperidyl)propyl]benzamide], the IC50 [1] was < 300 nM and the IC50 (recombinant Plk1) was < 300 nM.
In the case of `COc1cc(C(=O)NC2CCN(C)CC2)ccc1Nc1ncc2c(n1)N(C)CCC(=O)N2C` [Example 5, 4-[(2,6-Dimethyl-5-oxo-2,6,9,11-tetrazabicyclo[5.4.0]undeca-7,9,11-trien-10-yl)amino]-3-methoxy-N-(1-methyl-4-piperidyl)benzamide], the IC50 [1] is reported as < 30000 nM and the IC50 (recombinant Plk1) is reported as < 300 nM.
`COc1cc(C(=O)NCCN(C)C)ccc1Nc1ncc2c(n1)N(C1CCCC1)CC1(CC1)C(=O)N2C` [Example 387, 4-(9′-cyclopentyl-5′-methyl-6′-oxo-5′,6′,8′,9′-tetrahydrospiro[cyclopropane-1,7′-pyrimido[5,4-b][1,4]diazepine]-2′-ylamino)-N-(2-dimethylaminoethyl)-3-methoxy-benzamide] was tested, and the IC50 [1] was < 300 nM and the IC50 (recombinant Plk1) was < 300 nM.
`COc1cc(C(=O)NC2C[C@H]3CCC[C@@H](C2)N3C)ccc1Nc1ncc2c(n1)N(C1CCCC1)CC1(CC1)C(=O)N2C` (stereo partly drawn) [Example 385, 4-(9′-cyclopentyl-5′-methyl-6′-oxo-5′,6′,8′,9′-tetrahydrospiro[cyclopropane-1,7′-pyrimido[5,4-b][1,4]diazepine]-2′-ylamino)-3-methoxy-N-[(1S,5R)-9-methyl-9-azabicyclo[3.3.1]non-7-yl]benzamide] was tested, and the IC50 [1] was < 300 nM and the IC50 (recombinant Plk1) was < 300 nM.
`COc1cc(C(=O)N[C@H]2CCN(C)C2)ccc1Nc1ncc2c(n1)N(C1CCCC1)CCC(=O)N2C` [Example 63, 4-[(6-cyclopentyl-2-methyl-3-oxo-2,6,8,10-tetrazabicyclo[5.4.0]undeca-8,10,12-trien-9-yl)amino]-3-methoxy-N-[(3S)-1-methylpyrrolidin-3-yl]benzamide] was tested, and the IC50 [1] was < 300 nM and the IC50 (recombinant Plk1) was < 300 nM.
In the case of `COc1cc(C(=O)N[C@H]2CCNC2)ccc1Nc1ncc2c(n1)N(C1CCCC1)CCC(=O)N2C` [Example 56, 4-[(6-cyclopentyl-2-methyl-3-oxo-2,6,8,10-tetrazabicyclo[5.4.0]undeca-8,10,12-trien-9-yl)amino]-3-methoxy-N-[(3S)-pyrrolidin-3-yl]benzamide], the IC50 [1] is reported as < 1000 nM and the IC50 (recombinant Plk1) is reported as < 300 nM.
With `COc1cc(C(=O)NCCN2CCOCC2)ccc1Nc1ncc2c(n1)N(C(C)C)CCC(=O)N2C` [Example 219, 3-methoxy-4-[(2-methyl-3-oxo-6-propan-2-yl-2,6,8,10-tetrazabicyclo[5.4.0]undeca-7,9,11-trien-9-yl)amino]-N-(2-morpholin-4-ylethyl)benzamide] the IC50 [1] was < 1000 nM and the IC50 (recombinant Plk1) was < 300 nM.
For `CN1CCC(NC(=O)c2ccc(Nc3ncc4c(n3)N(C3CCCC3)CCC(=O)N4C)c(Cl)c2)CC1` [Example 185, 3-chloro-4-[(6-cyclopentyl-2-methyl-3-oxo-2,6,8,10-tetrazabicyclo[5.4.0]undeca-8,10,12-trien-9-yl)amino]-N-(1-methyl-4-piperidyl)benzamide], the IC50 [1] was < 300 nM and the IC50 (recombinant Plk1) was < 300 nM.
In the case of `COCC(C)N1CCC(=O)N(C)c2cnc(Nc3ccc(C(=O)NC4CCN(C)CC4)cc3OC)nc21` (stereo not drawn) [Example 230, 3-methoxy-4-[[6-(1-methoxypropan-2-yl)-2-methyl-3-oxo-2,6,8,10-tetrazabicyclo[5.4.0]undeca-7,9,11-trien-9-yl]amino]-N-(1-methyl-4-piperidyl)benzamide], the IC50 [1] is reported as < 30000 nM and the IC50 (recombinant Plk1) is reported as < 1000 nM.
With `Cc1cc(C(=O)NC2CCN(C)CC2)ccc1Nc1ncc2c(n1)N(C1CCCC1)CCC(=O)N2C` [Example 193, 4-[(6-cyclopentyl-2-methyl-3-oxo-2,6,8,10-tetrazabicyclo[5.4.0]undeca-8,10,12-trien-9-yl)amino]-3-methyl-N-(1-methyl-4-piperidyl)benzamide] the IC50 [1] was < 300 nM and the IC50 (recombinant Plk1) was < 300 nM.
`COCCN1CC[C@@H](NC(=O)c2ccc(Nc3ncc4c(n3)N(C3CCCC3)CCC(=O)N4C)c(OC)c2)C1` [Example 328, 4-[(2-cyclopentyl-6-methyl-5-oxo-2,6,9,11-tetrazabicyclo[5.4.0]undeca-7,9,11-trien-10-yl)amino]-3-methoxy-N-[(3R)-1-(2-methoxyethyl)pyrrolidin-3-yl]benzamide] was tested, and the IC50 [1] was < 300 nM and the IC50 (recombinant Plk1) was < 300 nM.
With `COc1cc(C(=O)NC2CCCCC2)ccc1Nc1ncc2c(n1)N(CCN(C)C)CCC(=O)N2C` [Example 275, N-cyclohexyl-4-[[2-(2-dimethylaminoethyl)-6-methyl-5-oxo-2,6,9,11-tetrazabicyclo[5.4.0]undeca-7,9,11-trien-10-yl]amino]-3-methoxy-benzamide] the IC50 [1] was < 30000 nM and the IC50 (recombinant Plk1) was < 100000 nM.
`CCOc1cc(C(=O)NC2CCN(C)CC2)ccc1Nc1ncc2c(n1)N(C1CCCC1)CCC(=O)N2C` [Example 200, 4-[(6-cyclopentyl-2-methyl-3-oxo-2,6,8,10-tetrazabicyclo[5.4.0]undeca-8,10,12-trien-9-yl)amino]-3-ethoxy-N-(1-methyl-4-piperidyl)benzamide] was tested, and the IC50 [1] was < 300 nM and the IC50 (recombinant Plk1) was < 1000 nM.
For `O=C1CCN(C2CCCC2)c2nc(Nc3ccc(C(=O)NCCN4CCOCC4)cc3Cl)ncc2N1` [Example 257, 3-chloro-4-[(6-cyclopentyl-3-oxo-2,6,8,10-tetrazabicyclo[5.4.0]undeca-8,10,12-trien-9-yl)amino]-N-(2-morpholin-4-ylethyl)benzamide], the IC50 [1] was < 30000 nM and the IC50 (recombinant Plk1) was < 100000 nM.
`CCN(CC)CCNC(=O)c1ccc(Nc2ncc3c(n2)N(C2CCCC2)CCC(=O)N3C)c(OC)c1` [Example 18, 4-[(6-cyclopentyl-2-methyl-3-oxo-2,6,8,10-tetrazabicyclo[5.4.0]undeca-8,10,12-trien-9-yl)amino]-N-(2-diethylaminoethyl)-3-methoxy-benzamide] was tested, and the IC50 [1] was < 300 nM and the IC50 (recombinant Plk1) was < 300 nM.
For `COc1cc(C(=O)NC(C)(C)CN2CCCC2)ccc1Nc1ncc2c(n1)N(C1CCCC1)CCC(=O)N2C` [Example 81, 4-[(6-cyclopentyl-2-methyl-3-oxo-2,6,8,10-tetrazabicyclo[5.4.0]undeca-8,10,12-trien-9-yl)amino]-3-methoxy-N-(2-methyl-1-pyrrolidin-1-yl-propan-2-yl)benzamide], the IC50 [1] was < 300 nM and the IC50 (recombinant Plk1) was < 1000 nM.
With `CN1CCC(NC(=O)c2ccc(Nc3ncc4c(n3)N(C3CCCC3)CCC(=O)N4C)nc2)CC1` [Example 269, 6-[(6-cyclopentyl-2-methyl-3-oxo-2,6,8,10-tetrazabicyclo[5.4.0]undeca-8,10,12-trien-9-yl)amino]-N-(1-methyl-4-piperidyl)pyridine-3-carboxamide] the IC50 [1] was < 1000 nM and the IC50 (recombinant Plk1) was < 300 nM.
`COc1cc(C(=O)NCCCCn2ccnc2)ccc1Nc1ncc2c(n1)N(C1CCCC1)CCC(=O)N2C` [Example 31, 4-[(6-cyclopentyl-2-methyl-3-oxo-2,6,8,10-tetrazabicyclo[5.4.0]undeca-8,10,12-trien-9-yl)amino]-N-(4-imidazol-1-ylbutyl)-3-methoxy-benzamide] was tested, and the IC50 [1] was < 300 nM and the IC50 (recombinant Plk1) was < 1000 nM.
`COc1cc(C(=O)NC2CCN(C)CC2)ccc1Nc1ncc2c(n1)N(C1CCCC1)CCCN2C` [Example 4, 4-[(2-Cyclopentyl-6-methyl-2,6,9,11-tetrazabicyclo[5.4.0]undeca-8,10,12-trien-10-yl)amino]-3-methoxy-N-(1-methyl-4-piperidyl)benzamide] was tested, and the IC50 [1] was < 1000 nM and the IC50 (recombinant Plk1) was < 100000 nM.
For `COc1cc(C(=O)NC2CCN(C)CC2)ccc1Nc1ncc2c(n1)N(C1CCCC1)CC1(CC1)C(=O)N2C` [Example 246, 4-(9′-cyclopentyl-5′-methyl-6′-oxo-5′,6′,8′,9′-tetrahydrospiro[cyclopropane-1,7′-pyrimido[5,4-b][1,4]diazepine]-2′-ylamino)-N-(1-methylpiperidin-4-yl)-3-methoxybenzamide], the IC50 [1] was < 300 nM and the IC50 (recombinant Plk1) was < 300 nM.
`CN1C(=O)CCN(C2CCCC2)c2nc(Nc3ccc(C(=O)NC4CCCCC4)cc3)ncc21` [Example 89, N-cyclohexyl-4-[(6-cyclopentyl-2-methyl-3-oxo-2,6,8,10-tetrazabicyclo[5.4.0]undeca-8,10,12-trien-9-yl)amino]benzamide] was tested, and the IC50 [1] was < 30000 nM and the IC50 (recombinant Plk1) was < 1000 nM.
`CN1C(=O)CCN(C2CCCC2)c2nc(Nc3ccc(C(=O)NCCN4CCOCC4)cc3)ncc21` [Example 191, 4-[(6-cyclopentyl-2-methyl-3-oxo-2,6,8,10-tetrazabicyclo[5.4.0]undeca-8,10,12-trien-9-yl)amino]-N-(2-morpholin-4-ylethyl)benzamide] was tested, and the IC50 [1] was < 1000 nM and the IC50 (recombinant Plk1) was < 1000 nM.
In the case of `CCOc1cc(C(=O)NC2CCN(CC)CC2)ccc1Nc1ncc2c(n1)N(C(C)C)CCC(=O)N2C` [Example 282, 3-ethoxy-N-(1-ethyl-4-piperidyl)-4-[(6-methyl-5-oxo-2-propan-2-yl-2,6,9,11-tetrazabicyclo[5.4.0]undeca-7,9,11-trien-10-yl)amino]benzamide], the IC50 [1] is reported as < 1000 nM and the IC50 (recombinant Plk1) is reported as < 1000 nM.
With `COc1cc(C(=O)NC2CC(C)(C)N(C)C(C)(C)C2)ccc1Nc1ncc2c(n1)N(C1CCCC1)CCC(=O)N2C` [Example 72, 4-[(6-cyclopentyl-2-methyl-3-oxo-2,6,8,10-tetrazabicyclo[5.4.0]undeca-8,10,12-trien-9-yl)amino]-3-methoxy-N-(1,2,2,6,6-pentamethyl-4-piperidyl)benzamide] the IC50 [1] was < 300 nM and the IC50 (recombinant Plk1) was < 300 nM.
